Experimental data published in US10456407B2, “Combination therapy for treating cancer” (Epizyme, Inc., priority 2015, dated 2019).

System: RL cells
Assay: RT2 Glucocorticoid signaling PCR array, RL (Table 4e, printed RI) cell line
Assay type: cell-based
Details: 4 days, Cpd44 1 uM, Pred 10-fold below 4-day IC50, vs DMSO, B2M-normalized
Description: Expression levels of (A). Sestrin; (B). TNF and (C) GILZ normalized to DMSO controls for each cell line with the indicated single agent or combination.

SMILES	ΔΔCT (AMPD3 mRNA)	ΔΔCT (ASPH mRNA)	ΔΔCT (BCL6 mRNA)	ΔΔCT (FOSL2 mRNA)	ΔΔCT (TSC22D3 mRNA)	ΔΔCT (ZFP36 mRNA)	ΔΔCT (ATF4 mRNA)	ΔΔCT (CREB3 mRNA)	ΔΔCT (CYB561 mRNA)	ΔΔCT (PIK3R1 mRNA)	ΔΔCT (POU2F1 mRNA)	ΔΔCT (SESN1 mRNA)	ΔΔCT (SLC19A2 mRNA)	ΔΔCT (ZHX3 mRNA)
CCN(c1cc(-c2ccc(CN3CCOCC3)cc2)cc(C(=O)NCc2c(C)cc(C)[nH]c2=O)c1C)C1CCOCC1 [Compound 44]	−0.885	0.476	0.263	−1.274	0.189	−0.036	–	–	–	–	–	–	–	–
C[C@]12C=CC(=O)C=C1CC[C@@H]1[C@@H]2[C@@H](O)C[C@@]2(C)[C@H]1CC[C@]2(O)C(=O)CO [Prednisolone, prednisolone]	–	–	–	–	–	–	1.364	0.762	−1.663	0.974	1.130	−4.062	0.047	0.168
